Two molecules from PMC12010006, “Subnanomolar MAS-related G protein-coupled receptor-X2/B2 antagonists with efficacy in human mast cells and disease models” (Signal Transduction and Targeted Therapy, 2025) can be followed below.

Read-outs that look alike come from different tables or passages of the source.

What all share (type): cell-based
One assay addresses T1, MRGPRX4 (Homo sapiens, UniProt Q96LA9).
T1 construct: host or cells: CHO-K1 beta-arrestin-2 (EA) cells
Nature of the assay: β-arrestin assay, CHO cells expressing MRGPRX4 (subtype selectivity). Conditions: 10 µM, versus PSB-18061 (2.6 µM). The procedure: (§1) Fig. 1 Characterization of MRGPRX2 inhibitor 1. a Chemical structure and molecular weight (MW) of 1. b Concentration-response curve of 1 determined in β-arrestin recruitment assays. CHO cells that recombinantly express MRGPRX2 were employed versus the agonist CST-14 (at its EC80 value of 1.0 µM). […] Data are means ± SEM of 3 biological replicates, performed in duplicates. c MRGPRX subtype selectivity of 1 (10 µM) determined in β-arrestin assays using CHO cells that recombinantly express the respective MRGPRX subtype. MRGPRX1 was activated by BAM-22P (8.5 µM),[19] MRGPRX2 was activated by CST-14 (1 µM), MRGPRX3 was activated by PSB-20294 (1 µM), and MRGPRX4 by PSB-18061 (2.6 µM).[44] […] The effect of each MRGPRX agonist was assessed in the absence and in the presence of 1; results were normalized to the maximal agonist effect. […] Statistical significance was determined by one-way ANOVA (Tukey’s multiple comparisons) test (ns P > 0.05 and ****P < 0.0001) TEXT PRINTED IN THE PICTURE: (a) 1 Hit compound: MW: 241.29 g/mol
(§2) Fig. 3 Biological characterization of PSB-172656. a Selectivity of PSB-172656 (100 nM) for MRGPRX2 over MRGPRX1, MRGPRX3, and MRGPRX4 measured in β-arrestin assays utilizing β-arrestin-CHO cells with recombinant expression of the respective receptor. […] Statistical significance was determined by one-way ANOVA (Tukey’s multiple comparison) test (ns P > 0.05). […]

The next assay deals with T2, MRGPRX2 (Homo sapiens, UniProt Q96LB1).
T2 sequence (Q96LB1 1-330): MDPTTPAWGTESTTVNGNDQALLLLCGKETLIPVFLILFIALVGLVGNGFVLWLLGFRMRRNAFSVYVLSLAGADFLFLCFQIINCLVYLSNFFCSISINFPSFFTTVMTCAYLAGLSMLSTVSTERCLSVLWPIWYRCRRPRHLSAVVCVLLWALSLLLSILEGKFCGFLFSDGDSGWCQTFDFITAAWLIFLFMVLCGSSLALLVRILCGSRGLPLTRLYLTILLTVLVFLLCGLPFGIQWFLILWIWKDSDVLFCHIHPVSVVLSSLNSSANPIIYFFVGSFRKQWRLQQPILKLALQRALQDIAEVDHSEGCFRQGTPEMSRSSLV
Nature of the assay: β-arrestin recruitment assay (antagonist mode), β-arrestin-CHO cells recombinantly expressing MRGPRX2. Further details: expressed in transfected cells. Background: Recruitment of arrestin is a read-out of receptor activation apart from second messengers.

In a further assay the target is T3, MRGPRX1 (Homo sapiens, UniProt Q96LB2).
T3 construct: host or cells: CHO-K1 beta-arrestin-2 (EA) cells
T3 sequence (Q96LB2 whole entry): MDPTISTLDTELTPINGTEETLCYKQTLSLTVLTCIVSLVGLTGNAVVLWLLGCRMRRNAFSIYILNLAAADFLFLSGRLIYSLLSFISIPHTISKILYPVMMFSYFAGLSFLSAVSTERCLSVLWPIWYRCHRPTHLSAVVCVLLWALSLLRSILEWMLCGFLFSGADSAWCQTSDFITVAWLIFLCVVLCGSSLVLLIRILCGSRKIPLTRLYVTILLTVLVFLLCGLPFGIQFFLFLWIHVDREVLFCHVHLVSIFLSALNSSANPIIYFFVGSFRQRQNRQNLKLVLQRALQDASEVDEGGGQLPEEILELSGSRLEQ
Description: β-arrestin assay, CHO cells expressing MRGPRX1 (subtype selectivity). As to conditions: 10 µM, versus BAM-22P (8.5 µM). The procedure: as §1, §2

A further assay deals with T4, MRGPRX3 (Homo sapiens, UniProt Q96LB0).
T4 construct: inferred from the enzyme-complementation principle of the assay; expressed in transfected cells; host or cells: CHO-K1 beta-arrestin-2 (EA) cells
T4 sequence (Q96LB0 whole entry): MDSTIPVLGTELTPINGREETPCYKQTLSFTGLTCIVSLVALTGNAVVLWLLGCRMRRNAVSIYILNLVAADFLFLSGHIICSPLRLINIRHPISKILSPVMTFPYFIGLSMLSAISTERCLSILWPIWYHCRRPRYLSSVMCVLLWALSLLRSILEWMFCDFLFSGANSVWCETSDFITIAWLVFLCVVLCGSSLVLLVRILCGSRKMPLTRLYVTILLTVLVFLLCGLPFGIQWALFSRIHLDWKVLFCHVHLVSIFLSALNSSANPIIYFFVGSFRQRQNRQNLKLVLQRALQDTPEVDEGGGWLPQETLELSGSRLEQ
Description: β-arrestin assay, CHO cells expressing MRGPRX3 (subtype selectivity). Conditions: 10 µM, versus PSB-20294. As for the experimental part:
as §1, §2

The mark [1] stands for this setting: versus CST-14 (EC80 1,000 nM, EC50 483 nM), Cheng-Prusoff, read-out: β-Arrestin assay Ki ± SEM.

T1 sequence (Q96LA9 whole entry): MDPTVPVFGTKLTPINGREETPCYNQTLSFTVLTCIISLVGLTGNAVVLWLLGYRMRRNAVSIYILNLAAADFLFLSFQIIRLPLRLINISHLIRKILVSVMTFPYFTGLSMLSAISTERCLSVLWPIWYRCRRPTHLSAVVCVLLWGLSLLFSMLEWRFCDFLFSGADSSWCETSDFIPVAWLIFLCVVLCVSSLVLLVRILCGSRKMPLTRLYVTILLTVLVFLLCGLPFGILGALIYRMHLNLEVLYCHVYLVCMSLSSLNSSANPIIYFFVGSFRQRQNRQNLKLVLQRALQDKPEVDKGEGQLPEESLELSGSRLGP

One may read the IC50 as the concentration that inhibits the measured activity by half. For `CCCc1c(C)[nH]c2nc3ccccc3n2c1=O` [Compound 1, 2-methyl-3-propylbenzo[4,5]imidazo[1,2-a]pyrimidin-4(1H)-one], at MRGPRX4, the “inhibition of MRGPRX4 activation” value is reported as “no inhibition”. For the same molecule, the IC50 on MRGPRX2 (versus CST-14 (EC80 1.0 µM), read-out: IC50, β-arrestin assay) was 2420 ± 220 nM. For the same molecule, the Ki at MRGPRX2 (setting [1]) is 788 ± 143 nM. Also, the “inhibition of MRGPRX1 activation” value on MRGPRX1 is “no inhibition”. For the same molecule, the “inhibition of MRGPRX3 activation” value against MRGPRX3 is recorded as “no inhibition”.
Turning to `CCc1c(C(C)C)[nH]c2nc3cc(F)c(F)cc3n2c1=O` [Compound 24, 3-ethyl-7,8-difluoro-2-isopropylbenzo[4,5]imidazo [1,2-a] pyrimidin-4(1H)-one], at MRGPRX4, the “inhibition of MRGPRX4 activation” value is recorded as “not able to block”. In addition, the “blockade of MRGPRX2 activation” value on MRGPRX2 (10 µM, versus CST-14 (1 µM)) is reported as “completely blocked”. For the same molecule, the “difference of Ki versus other agonists from the Ki value versus CST-14” value on MRGPRX2 (all investigated agonists) was below 2 fold. Also, the Schild plot slope on MRGPRX2 (versus (R)-ZINC-3573) is reported as 0.891. Moreover, the half-maximal inhibitory concentration (IC50) came to 11.3 ± 3.1 nM on MRGPRX2 (versus (R)-ZINC-3573 (EC80 2 µM), read-out: IC50 versus (R)-ZINC-3573, β-arrestin assay); 30.5 ± 6.3 nM at MRGPRX2 (versus SP (EC80 3 µM), read-out: IC50 versus substance P, β-arrestin assay); 17.2 ± 0.4 nM at MRGPRX2 (versus clomipramine (EC80 13 µM), read-out: IC50 versus clomipramine, β-arrestin assay). For the same molecule, the Ki amounted to 5.44 nM on MRGPRX2 (versus (R)-ZINC-3573 (EC80 2 µM), read-out: Ki versus (R)-ZINC-3573, β-arrestin assay); 3.68 nM on MRGPRX2 (versus C48/80 (EC80 18 µM), read-out: Ki versus compound 48/80, β-arrestin assay); 6.81 nM on MRGPRX2 (setting [1]); 8.82 nM at MRGPRX2 (versus SP (EC80 3 µM), read-out: Ki versus substance P, β-arrestin assay); 7.04 nM at MRGPRX2 (versus clomipramine (EC80 13 µM), read-out: Ki versus clomipramine, β-arrestin assay). Moreover, the Kb at MRGPRX2 (versus (R)-ZINC-3573, read-out: KB value (Schild plot)) is 7.59 nM; at MRGPRX2 (versus (R)-ZINC-3573, read-out: pKB value (Schild plot) (converted)), 7.41 nM; at MRGPRX2 (versus CST-14, read-out: pKB value (Schild plot) (converted)), 6.76 nM. In addition, the “mode of action (inhibition type)” value on MRGPRX2 (versus CST-14 and (R)-ZINC-3573) is on record as “competitive mode of action”. Moreover, the “selectivity for MRGPRX2 versus other MRGPRX subtypes” value on MRGPRX2 (versus MRGPRX1, -X3, -X4) is reported as “at least 1000 fold”. For the same molecule, the “inhibition of MRGPRX1 activation” value against MRGPRX1 was “not able to block”. On MRGPRX3, the “inhibition of MRGPRX3 activation” value is “not able to block”.
